{
  "source": "paper PMC3823425",
  "about": "(Journal of Cellular and Molecular Medicine, 2012)",
  "key": {"[1]": {"target": "VEGFR1 (Homo sapiens, UniProt P17948)", "sequence (P17948 27-1338, species assumed)": "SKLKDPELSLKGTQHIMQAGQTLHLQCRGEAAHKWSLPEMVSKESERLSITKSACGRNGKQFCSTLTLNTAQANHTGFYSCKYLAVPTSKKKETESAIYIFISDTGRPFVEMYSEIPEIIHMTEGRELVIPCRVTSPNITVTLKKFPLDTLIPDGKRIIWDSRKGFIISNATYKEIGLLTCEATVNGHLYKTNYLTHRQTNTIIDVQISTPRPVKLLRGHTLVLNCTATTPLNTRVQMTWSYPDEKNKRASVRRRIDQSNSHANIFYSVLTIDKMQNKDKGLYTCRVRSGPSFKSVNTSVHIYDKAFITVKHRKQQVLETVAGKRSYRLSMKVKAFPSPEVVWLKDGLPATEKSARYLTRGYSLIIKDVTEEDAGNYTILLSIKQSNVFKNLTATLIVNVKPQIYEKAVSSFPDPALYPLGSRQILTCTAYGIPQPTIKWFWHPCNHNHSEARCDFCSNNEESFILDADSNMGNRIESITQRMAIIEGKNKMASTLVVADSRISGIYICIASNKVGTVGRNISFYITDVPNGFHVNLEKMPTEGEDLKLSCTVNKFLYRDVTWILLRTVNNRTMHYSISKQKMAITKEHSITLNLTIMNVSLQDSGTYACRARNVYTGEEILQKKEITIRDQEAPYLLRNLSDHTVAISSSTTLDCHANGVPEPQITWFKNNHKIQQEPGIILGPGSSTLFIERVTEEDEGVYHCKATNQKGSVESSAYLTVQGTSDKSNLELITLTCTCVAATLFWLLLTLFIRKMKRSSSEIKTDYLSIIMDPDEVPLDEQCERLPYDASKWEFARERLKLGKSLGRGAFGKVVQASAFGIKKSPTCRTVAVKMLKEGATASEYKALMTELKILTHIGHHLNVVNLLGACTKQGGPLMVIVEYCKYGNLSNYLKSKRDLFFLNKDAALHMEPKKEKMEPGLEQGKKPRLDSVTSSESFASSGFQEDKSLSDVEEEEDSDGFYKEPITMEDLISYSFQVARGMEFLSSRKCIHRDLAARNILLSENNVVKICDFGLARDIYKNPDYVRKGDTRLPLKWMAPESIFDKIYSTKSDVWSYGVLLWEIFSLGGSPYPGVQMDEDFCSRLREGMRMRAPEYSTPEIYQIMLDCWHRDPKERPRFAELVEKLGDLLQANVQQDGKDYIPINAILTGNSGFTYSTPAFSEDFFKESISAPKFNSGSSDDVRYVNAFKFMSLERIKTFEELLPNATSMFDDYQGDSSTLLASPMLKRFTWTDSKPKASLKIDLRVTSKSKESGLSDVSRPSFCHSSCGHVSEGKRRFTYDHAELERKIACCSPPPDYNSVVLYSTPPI", "assay": "ELISA kinase assay VEGFR1", "type": "biochemical"}, "[2]": {"target": "T1, VEGFR2 (Homo sapiens, UniProt P35968)", "assay": "biochemical"}, "[3]": {"target": "T2, PDGFRβ (Homo sapiens, UniProt P09619)", "T2 sequence (P09619 33-1106, species assumed)": "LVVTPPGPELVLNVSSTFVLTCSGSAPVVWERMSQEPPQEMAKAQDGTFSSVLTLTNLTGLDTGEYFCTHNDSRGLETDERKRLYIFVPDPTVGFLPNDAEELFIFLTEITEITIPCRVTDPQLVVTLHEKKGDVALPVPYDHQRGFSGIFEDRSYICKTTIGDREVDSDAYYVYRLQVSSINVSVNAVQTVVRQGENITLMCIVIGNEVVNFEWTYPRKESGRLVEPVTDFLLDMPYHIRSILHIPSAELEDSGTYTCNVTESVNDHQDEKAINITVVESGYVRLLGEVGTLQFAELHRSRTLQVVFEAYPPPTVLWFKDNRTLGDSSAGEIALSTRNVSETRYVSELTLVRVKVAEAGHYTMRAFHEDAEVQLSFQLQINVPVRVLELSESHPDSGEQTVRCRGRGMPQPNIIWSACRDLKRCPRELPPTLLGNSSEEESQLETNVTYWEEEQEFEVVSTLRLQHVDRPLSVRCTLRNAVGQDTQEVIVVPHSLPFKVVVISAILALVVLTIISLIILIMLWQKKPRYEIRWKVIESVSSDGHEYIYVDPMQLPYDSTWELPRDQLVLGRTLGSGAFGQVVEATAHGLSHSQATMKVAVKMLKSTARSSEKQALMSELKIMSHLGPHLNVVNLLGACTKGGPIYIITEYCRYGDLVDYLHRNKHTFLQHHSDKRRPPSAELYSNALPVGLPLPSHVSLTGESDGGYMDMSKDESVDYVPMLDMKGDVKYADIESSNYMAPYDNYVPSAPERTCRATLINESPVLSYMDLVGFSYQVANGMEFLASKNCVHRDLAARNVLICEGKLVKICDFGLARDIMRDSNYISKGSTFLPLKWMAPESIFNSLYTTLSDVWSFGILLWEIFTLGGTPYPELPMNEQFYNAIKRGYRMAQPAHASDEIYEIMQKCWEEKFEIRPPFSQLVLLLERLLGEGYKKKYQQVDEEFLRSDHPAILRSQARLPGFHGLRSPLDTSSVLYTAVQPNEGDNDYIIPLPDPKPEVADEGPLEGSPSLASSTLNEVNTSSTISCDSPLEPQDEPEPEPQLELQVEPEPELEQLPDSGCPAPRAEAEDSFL", "assay": "ELISA kinase assay PDGFRβ", "type": "biochemical"}, "[4]": {"target": "T3, PDGFRα (Homo sapiens, UniProt P16234)", "T3 sequence (P16234 24-1089, species assumed)": "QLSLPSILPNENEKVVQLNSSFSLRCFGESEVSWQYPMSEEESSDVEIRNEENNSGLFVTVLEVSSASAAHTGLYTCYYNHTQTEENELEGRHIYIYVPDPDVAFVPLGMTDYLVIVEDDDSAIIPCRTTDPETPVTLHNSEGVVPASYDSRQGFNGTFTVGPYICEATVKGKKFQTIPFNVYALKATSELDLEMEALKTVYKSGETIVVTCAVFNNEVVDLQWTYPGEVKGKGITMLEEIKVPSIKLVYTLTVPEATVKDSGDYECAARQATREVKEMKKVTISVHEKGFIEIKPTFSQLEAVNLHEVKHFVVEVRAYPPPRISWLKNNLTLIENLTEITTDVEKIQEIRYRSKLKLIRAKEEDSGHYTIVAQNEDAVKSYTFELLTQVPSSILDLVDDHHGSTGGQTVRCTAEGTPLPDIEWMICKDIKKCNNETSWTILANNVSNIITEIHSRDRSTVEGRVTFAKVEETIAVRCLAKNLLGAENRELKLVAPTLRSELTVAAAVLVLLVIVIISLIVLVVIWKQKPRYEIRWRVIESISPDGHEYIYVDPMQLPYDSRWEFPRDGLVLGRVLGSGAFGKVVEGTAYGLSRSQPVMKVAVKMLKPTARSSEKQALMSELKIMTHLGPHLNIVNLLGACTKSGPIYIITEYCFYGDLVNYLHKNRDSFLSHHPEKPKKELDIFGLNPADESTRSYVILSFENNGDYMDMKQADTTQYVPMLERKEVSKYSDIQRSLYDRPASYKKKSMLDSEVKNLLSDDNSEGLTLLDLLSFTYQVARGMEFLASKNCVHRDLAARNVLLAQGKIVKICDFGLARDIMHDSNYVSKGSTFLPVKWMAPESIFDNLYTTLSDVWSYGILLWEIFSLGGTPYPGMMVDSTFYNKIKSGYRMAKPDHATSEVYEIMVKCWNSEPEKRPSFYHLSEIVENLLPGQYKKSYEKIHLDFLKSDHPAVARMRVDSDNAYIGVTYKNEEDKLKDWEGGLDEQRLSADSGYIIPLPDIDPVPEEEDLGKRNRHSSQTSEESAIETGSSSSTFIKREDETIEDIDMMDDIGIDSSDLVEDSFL", "assay": "ELISA kinase assay PDGFRα", "type": "biochemical"}, "[5]": {"target": "RET (Homo sapiens, UniProt P07949)", "assay": "ELISA kinase assay RET", "type": "biochemical"}, "[6]": {"target": "c-Kit (Homo sapiens, UniProt P10721)", "assay": "ELISA kinase assay c-Kit", "type": "biochemical"}, "[7]": {"target": "c-Src (Homo sapiens, UniProt P12931)", "assay": "biochemical"}, "[8]": {"target": "EPH-A2 (Homo sapiens, UniProt P29317)", "sequence (P29317 613-875 limits assumed, species assumed)": "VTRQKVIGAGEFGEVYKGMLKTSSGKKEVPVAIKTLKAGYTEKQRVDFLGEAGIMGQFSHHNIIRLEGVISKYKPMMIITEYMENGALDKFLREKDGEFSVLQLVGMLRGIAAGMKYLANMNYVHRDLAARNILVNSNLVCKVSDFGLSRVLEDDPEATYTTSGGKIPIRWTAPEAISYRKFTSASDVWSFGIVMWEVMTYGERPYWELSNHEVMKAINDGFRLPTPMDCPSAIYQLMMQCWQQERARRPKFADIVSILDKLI", "assay": "ELISA kinase assay EPH-A2", "type": "biochemical", "settings": "IC50 EPHA2, ELISA"}, "[9]": {"target": "EPH-B2 (Homo sapiens, UniProt P29323)", "sequence (P29323 621-884 limits assumed, species assumed)": "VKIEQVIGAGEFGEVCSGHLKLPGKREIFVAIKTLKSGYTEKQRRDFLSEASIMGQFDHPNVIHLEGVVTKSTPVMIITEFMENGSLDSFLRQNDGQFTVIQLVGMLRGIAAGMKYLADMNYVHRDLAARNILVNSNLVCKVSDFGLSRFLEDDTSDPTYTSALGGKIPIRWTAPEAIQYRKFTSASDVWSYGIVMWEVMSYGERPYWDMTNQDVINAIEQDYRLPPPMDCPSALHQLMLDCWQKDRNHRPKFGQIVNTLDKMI", "assay": "ELISA kinase assay EPH-B2", "type": "biochemical"}, "[10]": {"tested_on": "HUVEC cells", "assay": "VEGF-driven HUVEC proliferation", "type": "cell-based", "settings": "Homo sapiens, read-out: IC50 VEGF-driven HUVECs proliferation"}, "[11]": {"tested_on": "HUVEC cells", "assay": "b-FGF-driven HUVEC proliferation", "type": "cell-based", "settings": "Homo sapiens, read-out: IC50 bFGF-driven HUVECs proliferation"}, "[12]": {"tested_on": "chicken chorioallantoic membrane", "assay": "Chicken chorioallantoic membrane assay", "type": "in vivo", "settings": "48 hrs"}, "[13]": {"tested_on": "renal carcinoma xenograft (No.213847)", "assay": "CD31 immunohistochemistry of tumour microvessels", "type": "in vivo, nude mice", "settings": "five consecutive days"}, "[14]": {"tested_on": "renal carcinoma xenograft (No.213847)", "assay": "PDGFRβ immunohistochemistry of tumour pericytes", "type": "in vivo, nude mice", "settings": "5 days"}, "[15]": {"tested_on": "786-O renal carcinoma xenograft", "assay": "Tumour xenograft 786-O", "type": "in vivo, nude mice", "settings": "786-O model, dosages below 20 mg/kg"}, "[16]": {"tested_on": "Bxpc-3 pancreatic cancer xenograft", "assay": "Tumour xenograft Bxpc-3", "type": "in vivo, nude mice", "settings": "Bxpc-3 model, dosages below 20 mg/kg"}, "[17]": {"tested_on": "renal carcinoma xenograft No.213847", "assay": "Patient-derived renal carcinoma xenograft No.213847", "type": "in vivo, nude mice"}, "[18]": {"tested_on": "renal carcinoma xenograft No.20090223", "assay": "Patient-derived renal carcinoma xenograft No.20090223", "type": "in vivo, nude mice"}, "[19]": {"assay": "Toxicity observed in panel of human xenograft models", "type": "in vivo, nude mice", "settings": "p.o., 5 days per week, 5–20 mg/kg"}, "[20]": {"assay": "Plasma pharmacokinetics after p.o. administration", "type": "in vivo, rats"}, "[21]": {"assay": "Tissue distribution in tumour-bearing nude mice", "type": "in vivo", "settings": "for concentration at 21 day: nude, mouse, oral, 10 mg/kg"}, "[22]": {"target": "T4, FGFR1 (Homo sapiens, UniProt P11362)", "assay": "bFGF-induced FGFR1 autophosphorylation in HUVEC", "type": "cell-based", "settings": "b-FGF 25 ng/ml"}, "[23]": {"target": "PDGFRβ (Mus musculus, UniProt P05622)", "sequence (P05622 32-1098)": "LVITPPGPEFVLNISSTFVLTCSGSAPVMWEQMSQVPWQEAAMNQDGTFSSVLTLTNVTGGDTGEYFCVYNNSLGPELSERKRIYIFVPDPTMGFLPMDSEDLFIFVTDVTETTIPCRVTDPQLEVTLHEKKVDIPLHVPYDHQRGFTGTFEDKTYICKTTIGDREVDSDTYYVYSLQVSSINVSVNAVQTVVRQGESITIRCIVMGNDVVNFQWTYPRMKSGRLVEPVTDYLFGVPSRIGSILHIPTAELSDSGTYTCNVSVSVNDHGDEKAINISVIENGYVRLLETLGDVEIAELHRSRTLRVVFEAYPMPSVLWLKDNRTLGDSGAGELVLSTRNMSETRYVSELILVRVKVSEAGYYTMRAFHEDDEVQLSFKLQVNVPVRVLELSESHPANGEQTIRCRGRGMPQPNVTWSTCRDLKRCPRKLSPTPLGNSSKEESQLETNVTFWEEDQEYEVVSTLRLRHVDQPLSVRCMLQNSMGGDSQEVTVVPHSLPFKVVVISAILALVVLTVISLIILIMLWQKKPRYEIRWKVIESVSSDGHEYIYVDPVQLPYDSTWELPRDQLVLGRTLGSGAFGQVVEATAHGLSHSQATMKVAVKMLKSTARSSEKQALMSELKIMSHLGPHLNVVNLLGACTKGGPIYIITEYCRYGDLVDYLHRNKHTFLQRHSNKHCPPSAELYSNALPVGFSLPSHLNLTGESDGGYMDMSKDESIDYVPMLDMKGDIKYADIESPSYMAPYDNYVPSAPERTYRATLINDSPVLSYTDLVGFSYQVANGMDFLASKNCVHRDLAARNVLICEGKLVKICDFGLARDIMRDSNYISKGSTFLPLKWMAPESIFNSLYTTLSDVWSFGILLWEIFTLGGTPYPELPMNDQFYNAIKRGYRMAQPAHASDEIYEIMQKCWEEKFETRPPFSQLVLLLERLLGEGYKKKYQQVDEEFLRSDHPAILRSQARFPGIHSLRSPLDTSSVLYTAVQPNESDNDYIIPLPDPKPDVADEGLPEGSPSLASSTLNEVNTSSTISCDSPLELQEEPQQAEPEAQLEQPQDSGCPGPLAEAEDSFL", "assay": "PDGFBB-induced PDGFRβ autophosphorylation in Swiss3T3", "type": "cell-based, rat"}, "[24]": {"tested_on": "ERK1/2 and AKT", "assay": "VEGF-induced activation of ERK1/2 and AKT", "type": "cell-based", "settings": "VEGF165 50 ng/ml"}, "[25]": {"target": "T1, VEGFR2", "type": "biochemical", "settings": "pre-incubation 30 min., 100-fold dilution"}, "[26]": {"target": "T1, VEGFR2", "assay": "Cellular VEGFR2 autophosphorylation reversible assay", "type": "cell-based", "settings": "HUVEC, 1 μmol/L for 4 hrs"}, "[27]": {"target": "T1, VEGFR2", "type": "biochemical", "settings": "varying concentrations of ATP"}, "[28]": {"tested_on": "16 different tumour cell lines", "assay": "Tumour cell lines proliferation in vitro", "type": "cell-based", "settings": "read-out: average IC50 against 16 tumour cell lines proliferation"}, "[29]": {"target": "T4, FGFR1", "settings": "molecular assay, versus sorafenib"}, "[30]": {"target": "T1, VEGFR2"}, "[31]": {"target": "T3, PDGFRα", "settings": "read-out: IC50 PDGFRα phosphorylation in vitro assay; ref 17 Bello et al.; cited from earlier work"}, "[32]": {"target": "T2, PDGFRβ", "settings": "read-out: IC50 PDGFRβ phosphorylation in vitro assay; ref 17 Bello et al.; cited from earlier work"}, "[33]": {"target": "T4, FGFR1", "assay": "biochemical"}, "[34]": {"settings": "day 21 versus first administration"}},
  "note": "Entries after “also recorded” stand apart in the source; their conditions may differ. Like-named read-outs stand apart in the source and are kept apart here.",
  "data": [
    {"smiles": "CNC(=O)c1cccc2cc(Oc3ccnc4cc(OCC5(N)CC5)c(OC)cc34)ccc12", "note": "[AL3810, 6-[[7-[(1-aminocyclopropyl)methoxy]-6-methoxy-4-quinolyl]oxy]-N-methyl-naphthalene-1-carboxamide]", "values": [
      {"measurement": "IC50", "setting": "[1]", "value": 0.012, "unit": "µM"},
      {"measurement": "IC50", "setting": "[2]", "value": 0.004, "unit": "µM"},
      {"measurement": "IC50", "setting": "[3]", "value": 0.008, "unit": "µM"},
      {"measurement": "IC50", "setting": "[4]", "value": 0.013, "unit": "µM"},
      {"measurement": "IC50", "setting": "[5]", "value": 0.2, "unit": "µM"},
      {"measurement": "IC50", "setting": "[6]", "value": 0.527, "unit": "µM"},
      {"measurement": "IC50", "setting": "[7]", "value": 4.9, "unit": "µM"},
      {"measurement": "IC50", "setting": "[8]", "value": 6.66, "unit": "µM"},
      {"measurement": "IC50", "setting": "[9]", "value": 0.902, "unit": "µM"},
      {"measurement": "IC50", "setting": "[10]", "value": 0.042, "unit": "µM"},
      {"measurement": "IC50", "setting": "[11]", "value": 0.14, "unit": "µM"},
      {"measurement": "inhibition rate of blood vessel numbers and branching", "setting": "[12]; 0.3 nmol/egg", "value": 45.4, "unit": "%"},
      {"measurement": "inhibition rate of blood vessel numbers and branching", "setting": "[12]; 1 nmol/egg", "value": 82.5, "unit": "%"},
      {"measurement": "reduction of vessel density (CD31)", "setting": "[13]; 5 mg/kg", "value": 45, "unit": "%"},
      {"measurement": "reduction of vessel density (CD31)", "setting": "[13]; 10 mg/kg", "value": 80, "unit": "%"},
      {"measurement": "reduction of vessel density (CD31)", "setting": "[13]; 20 mg/kg", "value": 90, "unit": "%"},
      {"measurement": "reduction of PDGFRβ positive cells", "setting": "[14]; 5 mg/kg", "value": 52, "unit": "%"},
      {"measurement": "reduction of PDGFRβ positive cells", "setting": "[14]; 10 mg/kg", "value": 73, "unit": "%"},
      {"measurement": "reduction of PDGFRβ positive cells", "setting": "[14]; 20 mg/kg", "value": 86, "unit": "%"},
      {"measurement": "tumour response", "setting": "[15]", "value": "tumour regression"},
      {"measurement": "tumour response", "setting": "[16]", "value": "tumour regression"},
      {"measurement": "T/C", "setting": "[17]; No.213847, 5 mg/kg p.o., 5 days per week", "value": 9.01, "unit": "%"},
      {"measurement": "tumour response", "setting": "[17]; No.213847, 10–20 mg/kg", "value": "tumour regression"},
      {"measurement": "T/C", "setting": "[18]; No.20090223, 5 mg/kg p.o., 5 days per week", "value": 13.3, "unit": "%"},
      {"measurement": "tumour response", "setting": "[18]; No.20090223, 10–20 mg/kg", "value": "tumour regression"},
      {"measurement": "toxicity in xenograft-bearing mice", "setting": "[19]", "value": "no obvious toxicity observed"},
      {"measurement": "bioavailability", "setting": "[20]; rat, in vivo, po", "value": 31, "unit": "%"},
      {"measurement": "Tmax", "setting": "[20]; rat, plasma, po, 10 mg", "value": 6, "unit": "h"},
      {"measurement": "concentration at 24 hrs", "setting": "[20]; rat, plasma, po, 10 mg", "value": "< 50", "unit": "ng/mL"},
      {"measurement": "maximal plasma concentration", "setting": "[20]; rats, 10 mg p.o.", "value": "~1000", "unit": "ng/mL"},
      {"measurement": "exposure in liver, improvement versus first administration", "setting": "[21]; [34]", "value": 1.6, "unit": "times"},
      {"measurement": "exposure in lung, improvement versus first administration", "setting": "[21]; [34]", "value": 1.4, "unit": "times"},
      {"measurement": "exposure in renal tissue, improvement versus first administration", "setting": "[21]; [34]", "value": 2.1, "unit": "times"},
      {"measurement": "exposure in tumours, improvement versus first administration", "setting": "[21]; [34]", "value": 2.9, "unit": "times"},
      {"measurement": "concentration at 21 day", "setting": "[21]; kidney", "value": 398, "unit": "ng/g"},
      {"measurement": "concentration at 21 day", "setting": "[21]; liver", "value": 276, "unit": "ng/g"},
      {"measurement": "concentration at 21 day", "setting": "[21]; lung", "value": 208, "unit": "ng/g"},
      {"measurement": "concentration at 21 day", "setting": "[21]; plasma", "value": 7.8, "unit": "ng/mL"},
      {"measurement": "concentration at 21 day", "setting": "[21]; tumour", "value": 403, "unit": "ng/g"},
      {"measurement": "bFGF-induced FGFR1 autophosphorylation / activation", "setting": "[22]", "value": "blocked"},
      {"measurement": "PDGFBB-induced PDGFRβ autophosphorylation", "setting": "[23]; 100 nmol/l, Swiss3T3, PDGF-BB 40 ng/ml", "value": "inhibited; also recorded: almost completely block"},
      {"measurement": "VEGF-induced activation of ERK1/2 and AKT", "setting": "[24]", "value": "dramatically inhibited"},
      {"measurement": "reversibility of VEGFR2 inhibition", "setting": "[25]", "value": "reversible inhibitor"},
      {"measurement": "VEGFR2 phosphorylation after inhibitor washout", "setting": "[26]; 6 hrs after removal", "value": "recovered substantially"},
      {"measurement": "VEGFR2 phosphorylation after inhibitor washout", "setting": "[26]; 24 hrs after washout", "value": "total restoration"},
      {"measurement": "mode of inhibition versus ATP", "setting": "[27]", "value": "ATP competitive"},
      {"measurement": "IC50", "setting": "[28]", "value": "~18.7", "unit": "µM"},
      {"measurement": "IC50 against FGFR lower than sorafenib", "setting": "[29]", "value": 25, "unit": "fold"},
      {"measurement": "Tyr996 phosphorylation of VEGFR2", "setting": "[30]", "value": "inhibited"},
      {"measurement": "VEGFR2 autophosphorylation", "setting": "[30]", "value": "almost completely blocked"},
      {"measurement": "IC50", "setting": "[31]", "value": 0.175, "unit": "µM"},
      {"measurement": "IC50", "setting": "[32]", "value": 0.525, "unit": "µM"},
      {"measurement": "IC50", "setting": "[33]", "value": 0.007, "unit": "µM"}
    ]},
    {"smiles": "CNC(=O)c1cc(Oc2ccc(NC(=O)Nc3ccc(Cl)c(C(F)(F)F)c3)cc2)ccn1", "note": "[Sorafenib, reference compound]", "values": [
      {"measurement": "IC50", "setting": "[10]", "value": 0.337, "unit": "µM"},
      {"measurement": "IC50", "setting": "[11]", "value": 2.27, "unit": "µM"},
      {"measurement": "bFGF-induced FGFR1 autophosphorylation / activation", "setting": "[22]", "value": "potent inhibitory effects"},
      {"measurement": "PDGFRβ activation", "setting": "[23]; Swiss3T3, concentration not stated", "value": "potent inhibitory effects"}
    ]}
  ]
}
